Assay results: patent US20130143256A1, “LIQUID-BASED METHOD FOR PRODUCING PLANT EMBRYOS” (ArborGen Inc., priority 2006, published 2013)

Tests used:
Type in all cases: cell-based, loblolly pine
cell line N = test: Effect of maltose on embryo production in liquid EDM, cell line N; conditions: maltose 0 to 60 g/l
Experimental: (§1) Suspension cultures of the following four loblolly pine genotypes, I, B, M, and N, were tested. Each cell line or genotype was initiated from an individual immature seed explant derived from a control pollinated cross of select parent trees of loblolly pine. Five variations in the Liquid EDM listed in Table 1 were tested for development of loblolly pine somatic embryos in liquid. The five treatments were coded 1, 2, 3, 4 and 5 according to the concentration of maltose in the liquid medium, 0, 10, 20, 40 and 60 g/l, respectively. The proliferating embryogenic suspension cultures were poured in the side arm of the flask for 30 minutes to measure the settled cell volume (SCV) as described in example 2. A sub-sample of 12 ml of proliferating liquid suspension was removed for baseline development plating on five plates of MSG gelled embryo development medium for comparative purposes. The SCV measurement was recorded and the proliferating liquid suspensions were distributed among the treatments listed above. […] The SCV measurements were recorded and the flasks were placed on the shaker in the dark, 24° C. growth chamber and monitored on a weekly basis for five weeks as described below. the liquid embryo development suspensions were poured into the sidearm and allowed to settle in the sidearm for 30 minutes and the SCV measured and recorded. […]

[1] = test system: pine somatic embryos, genotype I; test: Germination of embryos developed at varying maltose concentration, genotype I
Experimental: (§2) In this particular experiment, after the 3 week conditioning treatment, the embryos on the membrane were placed on modMS germination medium in a lighted culture room at 24° C. After 3 to 5 days the embryos were individually removed from the membrane and transferred directly to the surface of modMS germination medium and cultured for an additional 2 weeks in a lighted growth room at 24° C. Embryo germination, which in this particular instance was estimated by identifying the emergence of a root from the embryo that was at least 1 cm long during this 2 week time period. Twenty-nine percent of the embryos harvested from liquid EDM germinated. Embryos were harvested and prepared for germination using two conditioning treatments: (1) exposure to high relative humidity for 3 weeks at 24° C. […] Embryos were then germinated as previously described in Example 5.

cell line I = test: Effect of maltose on embryo production in liquid EDM, cell line I; conditions: for Total Avg. Potential Embryos: 30 ml
Experimental: (§3) Suspension cultures of the following four loblolly pine genotypes, I, B, M, and N, were tested. Each cell line or genotype was initiated from an individual immature seed explant derived from a control pollinated cross of select parent trees of loblolly pine. Five variations in the Liquid EDM listed in Table 1 were tested for development of loblolly pine somatic embryos in liquid. The five treatments were coded 1, 2, 3, 4 and 5 according to the concentration of maltose in the liquid medium, 0, 10, 20, 40 and 60 g/l, respectively. The proliferating embryogenic suspension cultures were poured in the side arm of the flask for 30 minutes to measure the settled cell volume (SCV) as described in example 2. A sub-sample of 12 ml of proliferating liquid suspension was removed for baseline development plating on five plates of MSG gelled embryo development medium for comparative purposes. The SCV measurement was recorded and the proliferating liquid suspensions were distributed among the treatments listed above. Each treatment flask was initiated by placing 15 milliliters of 100% SCV onto a raft placed on a Buchner funnel and the excess liquid was removed through gentle vacuum aspiration. The tissues were then re-suspended into a 250 ml sidearm flask with 30 milliliters of Liquid Embryo Development Media with various maltose concentrations (from 0 to 60 g/l). Once the cultures were re-suspended in liquid EDM the suspensions were poured in the sidearm to settle in the sidearm for thirty minutes to measure the SCV. Each treatment had three replicate flasks. The SCV measurements were recorded and the flasks were placed on the shaker in the dark, 24° C. growth chamber and monitored on a weekly basis for five weeks as described below. the liquid embryo development suspensions were poured into the sidearm and allowed to settle in the sidearm for 30 minutes and the SCV measured and recorded. Each flask was sub-cultured as needed by adding liquid EDM to maintain the suspension density at 50%. This sequence of events was repeated at week two and week three. no media manipulation. The cultures were observed and placed back on the shaker. At week five the embryos were harvested as described in example 6 with the exception of using a 560 μm mesh to wash embryos. Half of the embryos were conditioned as described in example 6 and half were conditioned by the method described in U.S. Application Ser. No. 60/675, 949 simply for comparative purposes.

cell line M = test: Effect of maltose on embryo production in liquid EDM, cell line M; conditions: highest (60 g/L) concentration of maltose
Experimental: as §1

cell line B = test: Effect of maltose on embryo production in liquid EDM, cell line B; conditions: for Total Avg. Potential Embryos: 30 ml
Experimental: as §3

[2] = test system: pine somatic embryos, genotype B; test: Germination of embryos developed at varying maltose concentration, genotype B
Experimental: as §2

[3] = Cond 1: 3 wk HRH, maltose conc. 1%
[4] = Cond 1: 3 wk HRH, maltose conc. 2%
[5] = Cond 1: 3 wk HRH, maltose conc. 4%
[6] = Cond 1: 3 wk HRH, maltose conc. 6%
[7] = Cond 2: 4 wk cold & 3 wk HRH, maltose conc. 1%
[8] = Cond 2: 4 wk cold & 3 wk HRH, maltose conc. 2%
[9] = Cond 2: 4 wk cold & 3 wk HRH, maltose conc. 4%
[10] = Cond 2: 4 wk cold & 3 wk HRH, maltose conc. 6%
[11] = cell line I, maltose 10 g/l, week 5
[12] = cell line I, maltose 20 g/l, week 5
[13] = cell line I, maltose 40 g/l, week 5
[14] = cell line I, maltose 60 g/l, week 5
[15] = cell line B, maltose 10 g/l, week 5
[16] = cell line B, maltose 20 g/l, week 5
[17] = cell line B, maltose 40 g/l, week 5
[18] = cell line B, maltose 60 g/l, week 5

With `OC[C@H]1O[C@H](O[C@H]2[C@H](O)[C@@H](O)C(O)O[C@@H]2CO)[C@H](O)[C@@H](O)[C@@H]1O` (mixture of isomers) [maltose] the “response to maltose treatments” value (cell line N) was “did not respond”, the Germination [1, 3] was 37% and the Germination [1, 4] was 40%. For the same compound, the Germination [1, 5] was 33%, the Germination [1, 6] was 19% and the Germination [1, 7] was 21%. For the same compound, the Germination [1, 8] was 55%, the Germination [1, 9] was 48% and the Germination [1, 10] was 27%. The “production of fully developed embryos” value (cell line I; cell line I, all liquid EDM treatments that contained maltose (10 to 60 g/l)) was “Fully developed embryos were produced”, the “Avg. Embryos” value (cell line I; cell line I, maltose 10 g/l) was 206 per g tissue and the “Total Avg. Potential Embryos” value (cell line I; cell line I, maltose 10 g/l) was 464 per flask. For the same compound, the “Avg. Embryos” value (cell line I; [11]) was 16 per ml, the “Avg. ± st. dev. Embryos harvested” value (cell line I; [11]) was 232 ± 14 per 15 ml and the “Avg. Embryos” value (cell line I; cell line I, maltose 20 g/l) was 216 per g tissue. The “Total Avg. Potential Embryos” value (cell line I; cell line I, maltose 20 g/l) was 486 per flask, the “Avg. Embryos” value (cell line I; [12]) was 14 per ml and the “Avg. ± st. dev. Embryos harvested” value (cell line I; [12]) was 243 ± 60 per 15 ml. The “Avg. Embryos” value (cell line I; cell line I, maltose 40 g/l) was 237 per g tissue, the “Total Avg. Potential Embryos” value (cell line I; cell line I, maltose 40 g/l) was 526 per flask and the “Avg. Embryos” value (cell line I; [13]) was 16 per ml. The “Avg. ± st. dev. Embryos harvested” value (cell line I; [13]) was 263 ± 22 per 15 ml, the “Avg. Embryos” value (cell line I; cell line I, maltose 60 g/l) was 290 per g tissue and the “Total Avg. Potential Embryos” value (cell line I; cell line I, maltose 60 g/l) was 702 per flask. The “Avg. Embryos” value (cell line I; [14]) was 20 per ml, the “Avg. ± st. dev. Embryos harvested” value (cell line I; [14]) was 351 ± 66 per 15 ml and the “average number of embryos produced per total volume of medium used (discarded and saved)” value (cell line I; line I, 40 g/l maltose, 70 ml medium) was 7.5 embryos per total ml media used. The “average number of embryos produced per ml of total media used” value (cell line I; line I, across maltose levels from 10 to 60 g/l) was 8.3 per ml, the “response to increasing maltose” value (cell line M) was “producing embryos that had not fully development” and the “production of fully developed embryos” value (cell line B; cell line B, all liquid EDM treatments that contained maltose (10 to 60 g/l)) was “Fully developed embryos were produced”. For the same compound, the “Avg. Embryos” value (cell line B; cell line B, maltose 10 g/l) was 189 per g tissue, the “Total Avg. Potential Embryos” value (cell line B; cell line B, maltose 10 g/l) was 464 per flask and the “Avg. Embryos” value (cell line B; [15]) was 17 per ml. For the same compound, the “Avg. ± st. dev. Embryos harvested” value (cell line B; [15]) was 232 ± 84 per 15 ml, the “Avg. Embryos” value (cell line B; cell line B, maltose 20 g/l) was 218 per g tissue and the “Total Avg. Potential Embryos” value (cell line B; cell line B, maltose 20 g/l) was 526 per flask. For the same compound, the “Avg. Embryos” value (cell line B; [16]) was 18 per ml, the “Avg. ± st. dev. Embryos harvested” value (cell line B; [16]) was 263 ± 76 per 15 ml and the “Avg. Embryos” value (cell line B; cell line B, maltose 40 g/l) was 165 per g tissue. For the same compound, the “Total Avg. Potential Embryos” value (cell line B; cell line B, maltose 40 g/l) was 422 per flask, the “Avg. Embryos” value (cell line B; [17]) was 15 per ml and the “Avg. ± st. dev. Embryos harvested” value (cell line B; [17]) was 211 ± 281 per 15 ml. The “Avg. Embryos” value (cell line B; cell line B, maltose 60 g/l) was 89 per g tissue, the “Total Avg. Potential Embryos” value (cell line B; cell line B, maltose 60 g/l) was 240 per flask and the “Avg. Embryos” value (cell line B; [18]) was 8 per ml. The “Avg. ± st. dev. Embryos harvested” value (cell line B; [18]) was 120 ± 20 per 15 ml, the “average number of embryos produced per ml of total media used” value (cell line B; line B, across maltose levels from 10 to 60 g/l) was 5.6 per ml and the Germination [2, 3] was 9%. For the same compound, the Germination [2, 4] was 8%, the Germination [2, 5] was 8% and the Germination [2, 6] was 41%. For the same compound, the Germination [2, 7] was 5%, the Germination [2, 8] was 3% and the Germination [2, 9] was 24%. It also gave a Germination [2, 10] of 29%.
